# Source: patent US8784782B2 (Senomyx, Inc., priority 2005, dated 2014)
# Biological target: T1, hT1R1/hT1R3 umami receptor expressed in an HEK293 cell line (Homo sapiens, UniProt Q7RTX0+Q7RTX1)
# T1 construct: expressed in transfected cells; host or cells: HEK293 cell line derivative, hT1R1/hT1R3-HEK293-Gα15, clone I-17, mifepristone-induced
# T1 sequence (Q7RTX1 21-841): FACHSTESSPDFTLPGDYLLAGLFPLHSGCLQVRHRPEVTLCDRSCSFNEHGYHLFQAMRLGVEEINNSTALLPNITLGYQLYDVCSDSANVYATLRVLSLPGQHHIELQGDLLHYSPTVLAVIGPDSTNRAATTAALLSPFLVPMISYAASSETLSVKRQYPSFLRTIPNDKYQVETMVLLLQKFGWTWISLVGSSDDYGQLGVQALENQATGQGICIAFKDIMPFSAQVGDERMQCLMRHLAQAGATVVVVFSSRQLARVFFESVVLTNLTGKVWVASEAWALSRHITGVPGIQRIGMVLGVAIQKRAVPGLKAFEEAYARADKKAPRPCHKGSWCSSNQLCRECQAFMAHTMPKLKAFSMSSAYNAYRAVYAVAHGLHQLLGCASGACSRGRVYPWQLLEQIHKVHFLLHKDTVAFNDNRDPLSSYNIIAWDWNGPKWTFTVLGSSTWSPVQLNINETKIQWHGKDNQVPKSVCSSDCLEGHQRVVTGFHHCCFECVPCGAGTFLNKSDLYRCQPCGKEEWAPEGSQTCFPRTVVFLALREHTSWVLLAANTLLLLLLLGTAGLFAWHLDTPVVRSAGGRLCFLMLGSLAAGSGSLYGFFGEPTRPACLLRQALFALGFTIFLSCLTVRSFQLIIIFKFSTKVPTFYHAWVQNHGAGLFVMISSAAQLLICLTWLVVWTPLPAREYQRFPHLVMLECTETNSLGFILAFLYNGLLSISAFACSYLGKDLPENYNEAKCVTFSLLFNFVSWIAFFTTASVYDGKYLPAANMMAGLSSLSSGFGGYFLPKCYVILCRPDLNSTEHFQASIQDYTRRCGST
# T1 sequence (Q7RTX0 21-852): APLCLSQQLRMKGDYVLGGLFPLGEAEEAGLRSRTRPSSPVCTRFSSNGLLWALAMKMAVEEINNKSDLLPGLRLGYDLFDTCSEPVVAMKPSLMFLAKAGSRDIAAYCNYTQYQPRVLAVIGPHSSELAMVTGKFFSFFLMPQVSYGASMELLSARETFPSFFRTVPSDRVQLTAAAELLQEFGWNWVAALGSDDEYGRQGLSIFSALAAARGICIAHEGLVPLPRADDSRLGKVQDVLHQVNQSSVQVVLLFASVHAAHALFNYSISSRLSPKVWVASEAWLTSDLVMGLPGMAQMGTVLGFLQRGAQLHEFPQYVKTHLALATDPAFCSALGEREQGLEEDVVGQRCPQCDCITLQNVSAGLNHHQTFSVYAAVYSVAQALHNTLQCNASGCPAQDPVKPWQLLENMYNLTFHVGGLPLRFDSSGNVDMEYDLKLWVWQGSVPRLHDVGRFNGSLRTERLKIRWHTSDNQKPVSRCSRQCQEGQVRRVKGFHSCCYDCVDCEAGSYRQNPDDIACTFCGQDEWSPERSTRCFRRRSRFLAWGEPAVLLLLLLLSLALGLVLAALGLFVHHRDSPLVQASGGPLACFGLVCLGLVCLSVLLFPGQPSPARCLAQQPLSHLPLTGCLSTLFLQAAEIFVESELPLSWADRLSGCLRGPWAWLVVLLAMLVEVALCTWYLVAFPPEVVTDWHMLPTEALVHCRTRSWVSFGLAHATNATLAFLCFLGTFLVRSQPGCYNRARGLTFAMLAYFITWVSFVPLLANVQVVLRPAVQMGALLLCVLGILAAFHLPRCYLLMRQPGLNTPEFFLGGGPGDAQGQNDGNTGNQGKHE
# Experiment: In vitro hT1R1/hT1R3 umami taste receptor activation assay (FLIPR, dose response)
# Format: cell-based
# Conditions: Table A, triazoles; read-out: Umami EC50
# Experimental: Activity was determined using an automated fluorometric imaging assay on a FLIPR instrument ([…], Molecular Devices, Sunnyvale, Calif.) (designated FLIPR assay). […] After replacement with 25 μl D-PBS, stimulation was performed in the FLIPR instrument and at room temperature by the addition of 25 μl D-PBS supplemented with different stimuli at concentrations corresponding to twice the desired final level. Receptor activity was quantified by determining the maximal fluorescence increases (using a 480 nm excitation and 535 nm emission) after normalization to basal fluorescence intensity measured before stimulation.
# Activities were normalized to the response obtained with 60 mM monosodium glutamate, a concentration that elicits maximum receptor response.
row,SMILES,EC50 [nM]
1,"COc1cc(OC)cc(-c2n[nH]c(SCCc3ccccn3)n2)c1 [Example A20, 2-(2-(5-(3,5-dimethoxyphenyl)-2H-1,2,4-triazol-3-ylthio)ethyl)pyridine]",7370
2,"CCOc1ccc(-c2n[nH]c(SCc3ccccn3)n2)cc1 [Example A7, 2-((5-(4-ethoxyphenyl)-2H-1,2,4-triazol-3-ylthio)methyl)pyridine]",740
3,"COc1ccccc1-c1n[nH]c(SCCc2ccccn2)n1 [Example A22, 2-(2-(5-(2-methoxyphenyl)-2H-1,2,4-triazol-3-ylthio)ethyl)pyridine]",7380
4,"CC(C)c1ccc(-c2n[nH]c(SCc3ccccn3)n2)cc1 [Example A5, 2-((5-(4-isopropylphenyl)-2H-1,2,4-triazol-3-ylthio)methyl)pyridine]",420
5,"COc1ccc(-c2n[nH]c(SCc3ccccn3)n2)cc1 [Example A6, 2-((5-(4-methoxyphenyl)-2H-1,2,4-triazol-3-ylthio)methyl)pyridine]",520
6,"c1ccc(CSc2nc(-c3cccc4c3OCO4)n[nH]2)nc1 [Example A11, 2-((5-(benzo[d][1,3]dioxol-4-yl)-2H-1,2,4-triazol-3-ylthio)methyl)pyridine]",1350
7,"Cn1c(Cc2ccccc2)nnc1SCc1ccc(Cl)cc1Cl [Example A24, 3-benzyl-5-(2,4-dichlorobenzylthio)-4-methyl-4H-1,2,4-triazole]",6050
8,"Cn1c(Cc2ccsc2)nnc1SCc1ccc(Cl)cc1 [Example A27, 3-(4-chlorobenzylthio)-4-methyl-5-(thiophen-3-ylmethyl)-4H-1,2,4-triazole]",7920
9,"CCn1c(SCc2cccnc2)nnc1-c1cccc(C)c1 [Example A25, 3-((4-ethyl-5-m-tolyl-4H-1,2,4-triazol-3-ylthio)methyl)pyridine]",13100
10,"Cc1cccc(-c2n[nH]c(SCc3ccccn3)n2)c1 [Example A8, 2-((5-m-tolyl-2H-1,2,4-triazol-3-ylthio)methyl)pyridine]",940
11,"COc1ccc(-c2n[nH]c(SCc3ccc(C)cn3)n2)c(OC)c1 [Example A9, 2-((5-(2,4-dimethoxyphenyl)-2H-1,2,4-triazol-3-ylthio)methyl)-5-methylpyridine]",1070
12,"CCn1c(SCc2cccnc2)nnc1-c1cc2ccccc2cc1O [Example A26, 3-(4-ethyl-5-(pyridin-3-ylmethylthio)-4H-1,2,4-triazol-3-yl)naphthalen-2-ol]",1890
13,"Clc1ccccc1-c1n[nH]c(SCc2ccccn2)n1 [Example A14, 2-((5-(2-chlorophenyl)-2H-1,2,4-triazol-3-ylthio)methyl)pyridine]",2480
14,"Cc1ccoc1-c1n[nH]c(SCc2ccccn2)n1 [Example A21, 2-((5-(3-methylfuran-2-yl)-2H-1,2,4-triazol-3-ylthio)methyl)pyridine]",9410
15,"Cn1c(Cc2ccccc2)nnc1SCc1ccc(Cl)c(Cl)c1 [Example A23, 3-benzyl-5-(3,4-dichlorobenzylthio)-4-methyl-4H-1,2,4-triazole]",13000

# Same assay, conditions: Table B, pyridazines; read-out: Umami EC50
row,SMILES,EC50 [nM]
1,"c1cncc(CSc2ccc(-c3ccc4c(c3)OCCO4)nn2)c1 [Example B3, 3-(2,3-dihydrobenzo[b][1,4]dioxin-6-yl)-6-(pyridin-3-ylmethylthio)pyridazine]",8400
2,"COc1ccc(-c2ccc(SCc3ccccn3)nn2)cc1OC [Example B2, 3-(3,4-dimethoxyphenyl)-6-(pyridin-2-ylmethylthio)pyridazine]",1700
3,"c1ccc(CSc2ccc(-c3ccc4c(c3)OCCO4)nn2)nc1 [Example B1, 3-(2,3-dihydrobenzo[b][1,4]dioxin-yl)-6-(pyridin-2-ylmethylthio)pyridazine]",600

# Same assay, conditions: Table C, tetrazole; read-out: Umami EC50
row,SMILES,EC50 [nM]
1,"CSc1ccc(-c2nnn(Cc3ccccn3)n2)cc1 [Example C1, 2-((5-(4-(methylthio)phenyl)-2H-tetrazol-2-yl)methyl)pyridine]",5910

# Same assay, conditions: read-out: EC50 for activation of a hT1R1/hT1R3 umami receptor expressed in an HEK293 cell line
row,SMILES,EC50 [nM]
1,"CCc1ccc(-c2nc(SCc3ccccn3)n[nH]2)c(C)c1 [Example 10, 2-((5-(4-Ethyl-2-methylphenyl)-1H-1,2,4-triazol-3-ylthio)methyl)pyridine]",20
2,"Cc1cc(-c2nc(SCc3ccccn3)n[nH]2)c(C)o1 [Example 7, 2-((5-(2,5-dimethylfuran-3-yl)-1H-1,2,4-triazol-3-ylthio)methyl)pyridine]",2070
3,"Cc1ccc(-c2ccc(OCc3ccccn3)nn2)c(C)c1 [Example 15, 3-(2,4-Dimethylphenyl)-6-(pyridin-2-ylmethoxy)pyridazine]",6900
4,"Cc1ccc(-c2ccc(SCc3ccccc3)nn2)c(C)c1 [Example 14, 3-(Benzylthio)-6-(2,4-dimethylphenyl)pyridazine]",2700
5,"COc1cc(C)ccc1-c1nc(SCc2ccc(C)cn2)n[nH]1 [Example 2, 2-((5-(2-methoxy-4-methylphenyl)-1H-1,2,4-triazol-3-ylthio)methyl)-5-methylpyridine]",490
6,"Cc1ccc(-c2cn(Cc3ccccn3)nn2)cc1 [Example 11, 2-((4-p-Tolyl-1H-1,2,3-triazol-1-yl)methyl)pyridine]",4660
7,"Cc1ccc(-c2nnc(NCc3ccccn3)o2)c(C)c1 [Example 16, 5-(2,4-Dimethylphenyl)-N-(pyridin-2-ylmethyl)-1,3,4-oxadiazol-2-amine]",10300
8,Cc1ccc(-c2ccc(SCc3cccnc3)nn2)c(C)c1 [Example 17],15200
9,"Cc1ccc(-c2cn(CCc3ccccn3)nn2)cc1 [Example 12, 2-(2-(4-p-Tolyl-1H-1,2,3-triazol-1-yl)ethyl)pyridine]",16400
10,"CCc1ccc(-c2nc(SCc3ccccn3)n[nH]2)c(OC)c1 [Example 18, 2-((5-(4-ethyl-2-methoxyphenyl)-1H-1,2,4-triazol-3-ylthio)methyl)pyridine]",50
11,"Cc1ccc(-c2ccc(SCc3ccccn3)nn2)c(C)c1 [Example 13, 3-(2,4-Dimethylphenyl)-6-(pyridin-2-ylmethylthio)pyridazine]",1500

# Biological target: T1, hT1R1/hT1R3 umami receptor expressed in an HEK293 cell line
# Experiment: Umami taste enhancement activity assay (EC50 ratio vs. MSG, FLIPR)
# Format: cell-based
# Conditions: Table A, @ 0.03 μM compound
# Experimental: A series of measurements of the dose response is run in solutions comprising MSG alone, then a second dose response is run with MSG in combination with predetermined amounts of a candidate compound of Formula (I) at the same time.
# Typical compound concentrations tested were 30 μM, 10 μM, 3 μM, 1 μM, 0.3 μM, 0.1 μM and 0.03 μM. The relative efficacy of compounds of Formula (I) at enhancing the receptor was determined by calculating the magnitude of a shift in the EC50 for monosodium glutamate. Enhancement was defined as a ratio (EC50R) corresponding to the EC50 of monosodium glutamate, determined in the absence of the test compound, divided by the EC50 of monosodium glutamate, determined in the presence of the test compound.
# Stated alternatively, “EC50 ratio” as compared to MSG is calculated based on the following definitions: EC50 Ratio vs. MSG=EC50 (MSG)/EC50 (MSG+[Compound]) • wherein “[compound]” refers to the concentration of the compound of Formula (I) used to elicit (or enhance or potentiate) the MSG dose response.
row,SMILES,Ec50 ratio (vs. MSG)
1,"CCOc1ccc(-c2n[nH]c(SCc3ccccn3)n2)cc1 [Example A7, 2-((5-(4-ethoxyphenyl)-2H-1,2,4-triazol-3-ylthio)methyl)pyridine]",2.33
2,"CC(C)c1ccc(-c2n[nH]c(SCc3ccccn3)n2)cc1 [Example A5, 2-((5-(4-isopropylphenyl)-2H-1,2,4-triazol-3-ylthio)methyl)pyridine]",1.5

# Same assay, conditions: Table A, @ 0.3 μM compound
row,SMILES,Ec50 ratio (vs. MSG)
1,"COc1cc(OC)cc(-c2n[nH]c(SCCc3ccccn3)n2)c1 [Example A20, 2-(2-(5-(3,5-dimethoxyphenyl)-2H-1,2,4-triazol-3-ylthio)ethyl)pyridine]",4.84

# Same assay, conditions: compound present at 0.1 μM
row,SMILES,EC50 ratio (enhanced the effectiveness of monosodium glutamate)
1,"Cc1cc(-c2nc(SCc3ccccn3)n[nH]2)c(C)o1 [Example 7, 2-((5-(2,5-dimethylfuran-3-yl)-1H-1,2,4-triazol-3-ylthio)methyl)pyridine]",2.1
